Results: US20240174690A1, “ANNULATED 2-AMINO-3-CYANO THIOPHENES AND DERIVATIVES FOR THE TREATMENT OF CANCER” (BOEHRINGER INGELHEIM INTERNATIONAL GMBH, priority 2021, published 2024)

Key:
[1] = system: KRAS G12C-dependent Ba/F3 cells; experiment: Ba/F3 proliferation assay, KRAS G12C; format: cell-based; conditions: Mus musculus, BaF3, 72 h, AlamarBlue
Method in brief: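 Proliferation of mutant-KRAS-driven Ba/F3 cells cultured without IL-3 is followed with AlamarBlue after compound addition. Curves are fitted from duplicate wells.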

AsPC-1 cells = experiment: AsPC-1 CTG proliferation assay (120 h) (pancreatic cancer, G12D); format: cell-based; conditions: Homo sapiens, ASPC1
Description: AsPC-1 CTG Proliferation Assay (120 h) (Pancreatic Cancer, G12D)
The CTG assay is designed to measure quantitatively the proliferation of AsPC-1 cells (ATCC […]), using the CellTiter Glow Assay Kit (Promega G7571). Cells are grown in RPMI medium (ATCC) supplemented with Fetal Calf Serum (Life Technologies, Gibco BRL, Cat. No. 10270-106). On “day 0” 2000 AsPC-1 cells are seeded in 60 μL RPMI ATCC+10% FCS+Penstrep in a 384-well plate, flat and clear bottom (Greiner, PNr. 781091). Cells are then incubated in the plates at 37° C. in a CO2 incubator overnight. On day 1, compounds (10 mM stock in DMSO) are added with the ECHO acoustic liquid handler system (Beckman Coulter), including DMSO controls. Plates are incubated for 120 h, and cell viability is measured using CellTiter-Glo luminescent cell viability reagent (Promega product code G7570). Viability (stated as percent of control) is defined as relative luminescence units RLU of each well divided by the RLU of cells in DMSO controls. IC50 values are determined from viability measurements by non-linear regression using a four-parameter model.

[2] = Metabolic (microsomal) stability assay, human liver microsomes (HLM); format: in vitro ADME; conditions: predicted clearance as percent of liver blood flow, 1 μM
Method in brief: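 LC-MS/MS tracked parent disappearance at 0, 5, 15, 30 and 60 min in NADPH-initiated incubations with 1 mg/mL human microsomal protein and 1 μM compound at 37°C, pH 7.5. First-order fits gave intrinsic clearance, which was scaled up and reported as % QH. NADPH-free controls were also run.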

[3] = Caco-2 assay (permeability PappAB, PappBA, efflux ratio); format: in vitro ADME; conditions: human, Caco-2, 10 μM test compound, pH 7.4; for Papp A→B at 90 min, 10 μM: apical to basolateral; for efflux ratio at 90 min, 10 μM: efflux ratio PappBA/PappAB, read-out: Caco ER
Description: The assay provides information on the potential of a compound to pass the cell membrane, on the extent of oral absorption as well as on whether the compound is actively transported by uptake and/or efflux transporters. Permeability measurements across polarized, confluent Caco-2 cell monolayers grown on permeable filter supports (Corning, catalog #3391) are used. […] The receiver and donor compartments contain 0.25% bovine serum albumine (BSA) in assay buffer. Passive diffusion and/or active transport of compounds across the monolayer is measured in both apical to basolateral (a-b) and basolateral to apical (b-a) direction. a-b permeability (PappAB) represents drug absorption from the intestine into the blood and b-a permeability (PappBA) drug secretion from the blood back into the intestine via both passive permeability as well as active transport mechanisms mediated by efflux and uptake transporters that are expressed on the Caco-2 cells. After a pre-incubation of 25-30 min at 37° C., at predefined time points (0, 30, 60 and 90 min), samples were taken from the receiver and donor compartment, respectively. Concentrations of test compounds in samples were measured by HPLC/MS/MS, samples from the donor compartment were diluted 1:50 (v:v) with assay buffer, samples from receiver compartment were measured without dilution.
Apparent permeabilities in a-b (PappAB) and b-a (PappBA) directions are calculated according to the formula:
[formula] • Vrec [mL]: buffer volume in receiver compartment • Cdon [μmol/mL]: concentration of test compound in donor compartment at t=0 • ΔCrec: difference between concentrations of test compound in receiver compartment at start and end of incubation time • Δt: Incubation time • Vrec·ΔCrec/Δt [μmol/min]: Amount of compound transferred to receiver compartment per time • A [cm^2]: filter surface
Caco-2 efflux ratios (ER) are calculated as the ratio of PappBA/PappAB.

Row | SMILES | IC50 [1] | IC50 (AsPC-1 cells) | HLM QH [2] | Papp A→B at 90 min, 10 μM [3] | efflux ratio at 90 min, 10 μM [3]
1 | C[C@H](Oc1cc(-c2cc[nH]n2)nc(-c2noc3c2CCC[C@@]32CCCc3sc(N)c(C#N)c32)n1)[C@@H]1CCCN1C [II-71] | 0.028 µM | 1.67 µM | <24% | 0.5 ×10⁻⁶ cm/s | 63.3
2 | C[C@H](Oc1cc(N2CCN(C)C2=O)nc(-c2noc3c2CCC[C@@]32CCCc3sc(N)c(C#N)c32)n1)[C@@H]1CCCN1C [II-75] | 0.026 µM | 1.56 µM | 38% | 5 ×10⁻⁶ cm/s | 5
3 | C[C@H](Oc1cc(C2CCOCC2)nc(-c2noc3c2CCC[C@@]32CCCc3sc(N)c(C#N)c32)n1)[C@@H]1CCCN1C [II-76] | 0.018 µM | 3.97 µM | 31% | 6.5 ×10⁻⁶ cm/s | 3.7
4 | CC(=O)N1CC=C(c2cc(O[C@@H](C)[C@@H]3CCCN3C)nc(-c3noc4c3CCC[C@@]43CCCc4sc(N)c(C#N)c43)n2)CC1 [II-81] | 0.049 µM | 4.86 µM | <24% | 2 ×10⁻⁶ cm/s | 23
5 | C[C@H](Oc1cc(-c2cncnc2)nc(-c2noc3c2CCC[C@@]32CCCc3sc(N)c(C#N)c32)n1)[C@@H]1CCCN1C [II-82] | 0.082 µM | 5.45 µM | <24% | 2.5 ×10⁻⁶ cm/s | 9.2
6 | C[C@H](Oc1cc(-c2ccccn2)nc(-c2noc3c2CCC[C@@]32CCCc3sc(N)c(C#N)c32)n1)[C@@H]1CCCN1C [II-85] | 0.019 µM | 1.29 µM | 47% | – | 1.2
7 | C[C@H](Oc1cc(-c2cnn(C)n2)nc(-c2noc3c2CCC[C@@]32CCCc3sc(N)c(C#N)c32)n1)[C@@H]1CCCN1C [II-86] | 0.025 µM | 4.14 µM | 35% | 12 ×10⁻⁶ cm/s | 0.8
8 | C[C@H](Oc1cc(-c2cn[nH]c2)nc(-c2noc3c2CCC[C@@]32CCCc3sc(N)c(C#N)c32)n1)[C@@H]1CCCN1C [II-87] | 0.047 µM | 3.06 µM | <24% | < 1.7 ×10⁻⁶ cm/s | –
9 | C[C@H](Oc1cc([C@H]2CCOC2)nc(-c2noc3c2CCC[C@@]32CCCc3sc(N)c(C#N)c32)n1)[C@@H]1CCCN1C [II-88] | 0.006 µM | 1.98 µM | 26% | 12 ×10⁻⁶ cm/s | 1.8
10 | C[C@H](Oc1cc(-c2ccn(-c3ccccc3)n2)nc(-c2noc3c2CCC[C@@]32CCCc3sc(N)c(C#N)c32)n1)[C@@H]1CCCN1C [II-89] | 0.057 µM | 3.04 µM | <24% | < 10 ×10⁻⁶ cm/s | –
11 | CO[C@@H]1C[C@@H]([C@H](C)Oc2cc(-c3ccn(C)n3)nc(-c3noc4c3CCC[C@@]43CCCc4sc(N)c(C#N)c43)n2)N(C)C1 [II-91] | 0.015 µM | 2.26 µM | 46% | 9 ×10⁻⁶ cm/s | 1.6
12 | C[C@H](Oc1cc([C@@H]2CCOC2)nc(-c2noc3c2CCC[C@@]32CCCc3sc(N)c(C#N)c32)n1)[C@@H]1CCCN1C [II-94] | 0.005 µM | 0.985 µM | 48% | 13 ×10⁻⁶ cm/s | 2.1
13 | C[C@H](Oc1cc(C2COCCO2)nc(-c2noc3c2CCC[C@@]32CCCc3sc(N)c(C#N)c32)n1)[C@@H]1CCCN1C (stereo partly shown) [II-95] | 0.03 µM | 3.32 µM | 37% | 12 ×10⁻⁶ cm/s | 2.2
14 | C[C@H](Oc1cc(-c2ccn(C)n2)nc(-c2noc3c2CCC[C@@]32CCCc3sc(N)c(C#N)c32)n1)[C@@H]1CCCN1C [II-96] | 0.008 µM | 2.24 µM | <24% | 6.5 ×10⁻⁶ cm/s | 7.3
